Results published in article PMC4502315, “High Potency of a Novel Resveratrol Derivative, 3,3′,4,4′-Tetrahydroxy-trans-stilbene, against Ovarian Cancer Is Associated with an Oxidative Stress-Mediated Imbalance between DNA Damage Accumulation and Repair” (Oxidative Medicine and Cellular Longevity, 2015).

Legend:
OVCAR-3 cells [1] = assay: Cell proliferation (CFDA SE), OVCAR-3; format: cell-based, human; conditions: low-density cultures, 24 h, 10, 50, 100 μM tested
Protocol: (§1) Cell proliferative potential was determined using Cell Proliferation Kit I (PromoKine, Heidelberg, Germany) according to the manufacturer's instructions. In brief, cells were probed for 15 min with 5-(and 6)-carboxyfluorescein diacetate, a succinimidyl ester (CFDA SE; 2 μM) which diffuses into cells, covalently binds to proteins, and becomes fluorescent upon its hydrolysis by intracellular esterases. The fluorescence emitted by the cells (the dye is inherited by the daughter cells through successive divisions) was recorded using a Victor2 spectrofluorometer (Perkin-Elmer, Turku, Finland) with excitation at 435 nm and emission at 535 nm.

A2780 cells [2] = assay: Cell proliferation (CFDA SE), A2780; format: cell-based, human; conditions: low-density cultures, 24 h, 10, 50, 100 μM tested
Protocol: as §1

catalase (CAT) [3] = assay: CAT activity, SKOV-3; format: cell-based, human; conditions: 24 h, 10, 50, 100 μM tested
Protocol: (§2) Total activity of superoxide dismutase (SOD) was measured in cell lysates with a commercially available kit (R&D Systems Europe, Abingdon, UK), while the activity of catalase (CAT) was estimated by using the OxiSelect Catalase Activity Assay Kit (Cell Biolabs Inc., San Diego, CA, USA). Both assays were performed according to the manufacturer's instructions.

[4] = system: superoxide dismutase (SOD); assay: SOD activity in cell lysates, SKOV-3; format: cell-based, human; conditions: 24 h, 10, 50, 100 μM tested
Protocol: as §2

SKOV-3 cells = assay: SA-β-Gal activity (senescence), SKOV-3; format: cell-based, human; conditions: 24 h, 10, 50, 100 μM tested
Protocol: (§3) The activity of SA-β-Gal in the cell extracts was quantified by measuring the rate of conversion of 4-methylumbelliferyl-β-D-galactopyranoside to 4-methylumbelliferone, as described in [19]. In order to visualize expression of the enzyme in the cancer cell cytoplasm, cytochemical staining for SA-β-Gal was performed according to Dimri et al..

HOSE cells = assay: SA-β-Gal activity (senescence), HOSE cells; format: cell-based, human; conditions: 24 h, percentage of control cells
Protocol: as §3

A2780 cells [5] = assay: SA-β-Gal activity (senescence), A2780; format: cell-based, human; conditions: 24 h, 10, 50, 100 μM tested
Protocol: as §3

OVCAR-3 cells [6] = assay: Oxidative DNA damage (8-OH-dG immunoassay), OVCAR-3; format: cell-based, human; conditions: 24 h, 10, 50, 100 μM tested
Protocol: (§4) Oxidative DNA damage was assessed by measuring the 8-OH-dG concentration with a competitive immunoassay (Cell Biolabs Inc.), as per manufacturer's instructions. The efficiency of 8-OH-dG repair was estimated after cell recovery for 24 h in standard growth medium. In order to examine the activity of DNA glycosylase I, reverse transcription PCR was performed. RNA extraction was carried out using the RNA Bee (Tel-Test, Friendswood, Texas, USA) and purified according to the manufacturer's protocol. One microgram of RNA was reverse transcribed into cDNA with random hexamer primers, and cDNA was subjected to PCR. The profile of the replication cycles was denaturation at 94°C for 50 s, annealing at 58°C for 50 s, and polymerization at 72°C for 1 min. In each reaction, the expression of glyceraldehyde-3-phosphate dehydrogenase (GAPDH) served as the internal control. The primers used for PCR were as follows: hOGG1 forward, 5′-[…]-3′; hOGG1 reverse, 5′-TAGCCCGCCCTGTTCTTC-3′ designed to amplify a 551-bp region; GAPDH forward, 5′-CCATGGAGAAGGCTGGGG-3′; and GAPDH reverse 5′-[…]-3′ designed to amplify a 194-bp region (total number of cycles: 28). The PCR products were separated on 3% agarose gels stained with ethidium bromide and then visualized.

HPMCs [7] = assay: Oxidative DNA damage (8-OH-dG immunoassay), HPMCs; format: cell-based, human; conditions: 24 h, percentage of control cells
Protocol: as §4

catalase (CAT) [8] = assay: CAT activity, OVCAR-3; format: cell-based, human; conditions: 24 h, 10, 50, 100 μM tested
Protocol: as §2

[9] = system: superoxide dismutase (SOD); assay: SOD activity in cell lysates, HOSE cells; format: cell-based, human; conditions: 24 h, percentage of control cells
Protocol: as §2

OVCAR-3 cells [10] = assay: SA-β-Gal activity (senescence), OVCAR-3; format: cell-based, human; conditions: 24 h, 10, 50, 100 μM tested
Protocol: as §3

p38 MAPK = p38 MAPK activation (FACE ELISA), A2780; format: cell-based, human; conditions: 24 h, 10, 50, 100 μM tested
Protocol: Activation of p38 MAPK was examined using the Fast Activated Cell-Based ELISA (FACE) p38 kit (Active Motif) according to the manufacturer's instructions. In brief, cells were fixed with 4% formaldehyde and incubated with a primary antibody that recognizes either phosphorylated p38 or total p38 overnight at 4°C. Then the cells were washed and incubated with a secondary HRP-conjugated antibody for 1 h at room temperature. The color reaction that developed was read using a spectrofluorometer at 450 nm wavelength.
The results were expressed as a ratio of phosphorylated to total p38 activity.

[11] = system: superoxide dismutase (SOD); assay: SOD activity in cell lysates, A2780; format: cell-based, human; conditions: 24 h, 10, 50, 100 μM tested
Protocol: as §2

OVCAR-3 cells [12] = assay: ROS production (H2DCFDA), OVCAR-3; format: cell-based, human; conditions: 24 h, 10, 50, 100 μM tested
Protocol: ROS production was assessed in cells probed with a fluorescent dye, 2′,7′-dichlorodihydrofluorescein diacetate (H2DCFDA; 5 μM) (Molecular Probes, Eugene, USA) for 45 min at 37°C. Fluorescence intensity in cell lysates was monitored in a Victor2 spectrofluorometer with excitation at 485 nm and emission at 535 nm.

A2780 = assay: LDH release assay, A2780; format: cell-based; conditions: Homo sapiens, 24 h; for IC50: CalcuSyn
Protocol: As per LDH release, the measurements were performed using the commercially available Pierce LDH Cytotoxicity Assay Kit (Pierce Biotechnology, Rockford, IL, USA). In this assay, cells with damaged plasma membranes release LDH into the culture environment; then the enzyme catalyses the conversion of lactate to pyruvate, which is accompanied by a reduction of NAD^+ to NADH. Afterwards, diaphorase uses NADH to reduce a tetrazolium salt to a formazan whose level is proportional to LDH activity. The absorbance emitted by the formazan was monitored at 490 nm with a reference wavelength of 680 nm.
In order to examine the effect of 3,3′,4,4′-THS on the viability of ovarian cancer cells and to compare its activity with RVT, subconfluent cultures of A2780, OVCAR-3, and SKOV-3 cells were subjected to a wide range of stilbene concentrations (0–500 μM) for 24 h; then MTT and LDH release assays were performed.

HPMCs [13] = assay: Cell proliferation (CFDA SE), HPMCs; format: cell-based, human; conditions: 24 h, percentage of control cells
Protocol: as §1

Row | SMILES | proliferation, effect in words (OVCAR-3 cells [1]) | proliferation, effect in words (A2780 cells [2]) | CAT activity, effect in words (catalase (CAT) [3]) | SOD activity, effect in words [4] | SA-β-Gal activity (senescence), effect in words (SKOV-3 cells) | SA-β-Gal (HOSE cells; 10 μM) | SA-β-Gal (HOSE cells; 50 μM) | SA-β-Gal (HOSE cells; 100 μM) | SA-β-Gal activity (senescence), effect in words (A2780 cells [5]) | concentration of 8-OH-dG (oxidative DNA damage), effect in words (OVCAR-3 cells [6]) | 8-OH-dG (HPMCs [7]; 10 μM) | 8-OH-dG (HPMCs [7]; 50 μM) | 8-OH-dG (HPMCs [7]; 100 μM) | CAT activity, effect in words (catalase (CAT) [8]) | SOD ([9]; 10 μM) | SOD ([9]; 50 μM) | SOD ([9]; 100 μM) | SA-β-Gal activity (senescence), effect in words (OVCAR-3 cells [10]) | p38 MAPK activity (phosphorylated/total), effect in words (p38 MAPK) | SOD activity, effect in words [11] | further results
1 | Oc1ccc(/C=C/c2ccc(O)c(O)c2)cc1O [3,3′,4,4′-THS, 3,3′,4,4′-tetrahydroxy-trans-stilbene] | evident at as low a concentration as 10 μM | evident at as low a concentration as 10 μM | downregulated it in the SKOV-3 cells at 50 and 100 μM | downregulated it at 50 and 100 μM | significantly greater than those of RVT at each concentration | 99 ± 2% | 101 ± 3% | 102 ± 5% | increased SA-β-Gal at each dose, reaching the highest activity at as low a dose as 10 μM | increasing the concentration of 8-OH-dG in the OVCAR-3 and SKOV-3 cells starting from a dose of 10 μM | 91 ± 2^∗# % | 88 ± 3^∗# % | 76 ± 3^∗# % | upregulated it in the OVCAR-3 cells at 10 μM, reduced it at 50 and 100 μM | 122 ± 1^∗# % | 141 ± 5^∗# % | 136 ± 2^∗# % | significantly greater than those of RVT at each concentration | elicited its stimulatory activity at 50 and 100 μM | increased SOD at 10 μM and decreased the activity of the enzyme at 50 and 100 μM | generation of ROS, effect in words (OVCAR-3 cells [12]): remarkably stronger; viability at 10 µM (A2780; 10 μM, percentage of control cells): 42 ± 3%; viability at 50 µM (A2780; 50 μM, percentage of control cells): 26 ± 3%; viability at 100 µM (A2780; 100 μM, percentage of control cells): 22 ± 3%; IC50 (A2780): 6 µM; Proliferation (HPMCs [13]; 10 μM): 141 ± 3^∗# %; Proliferation (HPMCs [13]; 50 μM): 103 ± 1%; Proliferation (HPMCs [13]; 100 μM): 102 ± 2%
2 | Oc1ccc(/C=C/c2cc(O)cc(O)c2)cc1 [RVT, 3,4′,5-trihydroxy-trans-stilbene, reference compound] | effectively reduced the expandability | effectively reduced the expandability | stimulated the enzyme at 10 μM in the OVCAR-3 cells, at 50 μM in the A2780, OVCAR-3, and SKOV-3 cells, and at 100 μM in the OVCAR-3 and SKOV-3 cells | failed to affect SOD activity | cellular senescence was elicited | 101 ± 2% | 101 ± 2% | 100 ± 3% | did not change | evident only at 100 μM | 103 ± 3% | 103 ± 2% | 102 ± 5% | stimulated the enzyme at 10 μM in the OVCAR-3 cells, at 50 μM in the A2780, OVCAR-3, and SKOV-3 cells, and at 100 μM in the OVCAR-3 and SKOV-3 cells | 111 ± 3^∗ % | 112 ± 3^∗ % | 121 ± 4^∗ % | cellular senescence was elicited | increased the activity of p38 MAPK at 100 μM | upregulated activity of the enzyme | generation of ROS, effect in words (OVCAR-3 cells [12]): stimulated the release of ROS; IC50 (A2780): 65 µM; Proliferation (HPMCs [13]; 10 μM): 99 ± 3%; Proliferation (HPMCs [13]; 50 μM): 103 ± 4%; Proliferation (HPMCs [13]; 100 μM): 102 ± 2%
